Assays:
[1] = molecular target: Histamine H1 receptor (Homo sapiens, UniProt P35367); format: functional, cell-based
[2] = molecular target: Histamine H2 receptor (Homo sapiens, UniProt P25021)
[3] = molecular target: 5-hydroxytryptamine receptor 2B (Homo sapiens, UniProt P41595)
[4] = molecular target: D(1A) dopamine receptor (Homo sapiens, UniProt P21728)
[5] = molecular target: D(3) dopamine receptor (Homo sapiens, UniProt P35462)
[6] = molecular target: Prothrombin (Homo sapiens, UniProt P00734); format: functional
[7] = molecular target: Vascular endothelial growth factor receptor 2 (Homo sapiens, UniProt P35968); format: functional
Sequence of Vascular endothelial growth factor receptor 2 (P35968 whole entry): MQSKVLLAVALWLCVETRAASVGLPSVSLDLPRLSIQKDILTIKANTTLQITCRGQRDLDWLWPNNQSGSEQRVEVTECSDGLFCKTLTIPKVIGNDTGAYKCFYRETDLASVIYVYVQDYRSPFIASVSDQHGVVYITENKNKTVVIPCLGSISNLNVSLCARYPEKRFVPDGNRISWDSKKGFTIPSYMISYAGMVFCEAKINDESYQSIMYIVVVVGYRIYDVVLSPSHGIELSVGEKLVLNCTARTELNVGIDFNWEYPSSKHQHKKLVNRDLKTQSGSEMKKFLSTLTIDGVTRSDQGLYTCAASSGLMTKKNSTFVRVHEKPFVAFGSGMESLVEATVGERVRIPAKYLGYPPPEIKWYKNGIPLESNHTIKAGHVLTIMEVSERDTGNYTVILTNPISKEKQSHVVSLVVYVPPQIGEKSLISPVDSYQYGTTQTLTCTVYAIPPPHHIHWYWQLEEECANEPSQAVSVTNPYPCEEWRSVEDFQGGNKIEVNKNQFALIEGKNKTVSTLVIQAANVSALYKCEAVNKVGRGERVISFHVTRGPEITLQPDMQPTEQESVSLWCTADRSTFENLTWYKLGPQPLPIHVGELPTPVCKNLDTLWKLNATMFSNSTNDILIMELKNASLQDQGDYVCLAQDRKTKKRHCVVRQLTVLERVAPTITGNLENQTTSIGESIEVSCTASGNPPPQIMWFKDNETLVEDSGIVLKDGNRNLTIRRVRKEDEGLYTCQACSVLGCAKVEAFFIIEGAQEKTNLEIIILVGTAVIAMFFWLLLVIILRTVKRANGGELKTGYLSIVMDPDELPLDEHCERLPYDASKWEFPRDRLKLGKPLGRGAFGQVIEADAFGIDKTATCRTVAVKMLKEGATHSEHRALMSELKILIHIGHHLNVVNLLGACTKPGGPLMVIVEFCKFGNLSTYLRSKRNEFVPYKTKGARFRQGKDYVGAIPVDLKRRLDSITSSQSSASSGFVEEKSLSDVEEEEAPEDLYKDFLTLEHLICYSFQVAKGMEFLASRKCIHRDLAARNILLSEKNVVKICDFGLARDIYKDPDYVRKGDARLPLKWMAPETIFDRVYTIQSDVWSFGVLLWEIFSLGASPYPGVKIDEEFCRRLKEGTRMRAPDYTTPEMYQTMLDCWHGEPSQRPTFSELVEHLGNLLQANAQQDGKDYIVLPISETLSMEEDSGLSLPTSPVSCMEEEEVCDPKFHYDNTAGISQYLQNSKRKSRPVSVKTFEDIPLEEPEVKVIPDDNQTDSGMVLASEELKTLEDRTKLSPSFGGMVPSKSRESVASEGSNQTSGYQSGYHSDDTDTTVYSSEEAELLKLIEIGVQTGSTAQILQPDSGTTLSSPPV

[8] = molecular target: 3',5'-cyclic-AMP phosphodiesterase 4A (Homo sapiens, UniProt P27815); format: functional
Sequence of 3',5'-cyclic-AMP phosphodiesterase 4A (P27815 whole entry): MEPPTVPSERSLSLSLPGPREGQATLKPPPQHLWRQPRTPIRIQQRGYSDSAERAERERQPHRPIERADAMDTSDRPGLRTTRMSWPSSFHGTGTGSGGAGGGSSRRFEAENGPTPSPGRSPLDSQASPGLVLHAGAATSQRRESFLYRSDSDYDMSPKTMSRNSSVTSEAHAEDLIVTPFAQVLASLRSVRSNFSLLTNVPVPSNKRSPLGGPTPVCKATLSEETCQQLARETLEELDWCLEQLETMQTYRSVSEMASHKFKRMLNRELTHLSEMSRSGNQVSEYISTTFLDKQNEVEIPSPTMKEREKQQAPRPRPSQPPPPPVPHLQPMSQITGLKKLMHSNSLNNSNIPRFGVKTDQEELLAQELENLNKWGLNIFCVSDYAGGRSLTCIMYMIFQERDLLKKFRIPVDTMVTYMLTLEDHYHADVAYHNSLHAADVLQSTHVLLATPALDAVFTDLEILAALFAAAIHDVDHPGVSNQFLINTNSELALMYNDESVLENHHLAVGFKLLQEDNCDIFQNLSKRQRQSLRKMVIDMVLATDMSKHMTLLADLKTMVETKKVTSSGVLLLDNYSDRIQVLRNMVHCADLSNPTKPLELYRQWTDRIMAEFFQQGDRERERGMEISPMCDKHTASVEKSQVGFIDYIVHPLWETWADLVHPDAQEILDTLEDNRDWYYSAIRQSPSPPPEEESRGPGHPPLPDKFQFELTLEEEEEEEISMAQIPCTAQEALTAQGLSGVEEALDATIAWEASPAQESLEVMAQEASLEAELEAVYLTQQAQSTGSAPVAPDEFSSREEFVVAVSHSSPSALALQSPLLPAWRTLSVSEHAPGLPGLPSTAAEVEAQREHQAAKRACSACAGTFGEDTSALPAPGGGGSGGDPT

[9] = molecular target: T1, Progesterone receptor (Homo sapiens, UniProt P06401)
T1 sequence (P06401 whole entry): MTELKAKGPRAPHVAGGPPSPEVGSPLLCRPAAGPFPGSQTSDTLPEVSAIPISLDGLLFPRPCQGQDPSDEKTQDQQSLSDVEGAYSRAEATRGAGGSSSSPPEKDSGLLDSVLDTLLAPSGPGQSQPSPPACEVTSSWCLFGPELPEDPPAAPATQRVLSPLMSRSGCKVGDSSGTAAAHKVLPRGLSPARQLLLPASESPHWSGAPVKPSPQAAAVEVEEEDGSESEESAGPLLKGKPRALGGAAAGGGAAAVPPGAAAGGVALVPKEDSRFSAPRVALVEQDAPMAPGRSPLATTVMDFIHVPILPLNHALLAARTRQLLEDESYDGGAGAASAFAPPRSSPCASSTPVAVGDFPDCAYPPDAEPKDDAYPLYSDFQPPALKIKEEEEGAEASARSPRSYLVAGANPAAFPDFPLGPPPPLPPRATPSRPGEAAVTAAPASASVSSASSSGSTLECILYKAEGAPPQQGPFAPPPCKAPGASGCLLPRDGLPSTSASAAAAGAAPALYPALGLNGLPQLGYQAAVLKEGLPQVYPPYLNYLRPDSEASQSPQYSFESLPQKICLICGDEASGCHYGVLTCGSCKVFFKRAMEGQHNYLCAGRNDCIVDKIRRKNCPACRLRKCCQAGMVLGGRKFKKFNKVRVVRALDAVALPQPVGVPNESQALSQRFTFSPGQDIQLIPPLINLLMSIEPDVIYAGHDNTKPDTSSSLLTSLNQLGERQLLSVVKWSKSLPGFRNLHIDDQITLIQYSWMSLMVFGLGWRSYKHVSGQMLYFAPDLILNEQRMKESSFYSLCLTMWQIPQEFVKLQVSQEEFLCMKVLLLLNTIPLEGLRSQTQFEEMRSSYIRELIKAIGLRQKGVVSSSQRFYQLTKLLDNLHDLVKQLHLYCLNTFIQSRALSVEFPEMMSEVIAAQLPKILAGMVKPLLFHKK

[10] = molecular target: Prostaglandin G/H synthase 1 (Homo sapiens, UniProt P23219); format: functional
Sequence of Prostaglandin G/H synthase 1 (P23219 whole entry): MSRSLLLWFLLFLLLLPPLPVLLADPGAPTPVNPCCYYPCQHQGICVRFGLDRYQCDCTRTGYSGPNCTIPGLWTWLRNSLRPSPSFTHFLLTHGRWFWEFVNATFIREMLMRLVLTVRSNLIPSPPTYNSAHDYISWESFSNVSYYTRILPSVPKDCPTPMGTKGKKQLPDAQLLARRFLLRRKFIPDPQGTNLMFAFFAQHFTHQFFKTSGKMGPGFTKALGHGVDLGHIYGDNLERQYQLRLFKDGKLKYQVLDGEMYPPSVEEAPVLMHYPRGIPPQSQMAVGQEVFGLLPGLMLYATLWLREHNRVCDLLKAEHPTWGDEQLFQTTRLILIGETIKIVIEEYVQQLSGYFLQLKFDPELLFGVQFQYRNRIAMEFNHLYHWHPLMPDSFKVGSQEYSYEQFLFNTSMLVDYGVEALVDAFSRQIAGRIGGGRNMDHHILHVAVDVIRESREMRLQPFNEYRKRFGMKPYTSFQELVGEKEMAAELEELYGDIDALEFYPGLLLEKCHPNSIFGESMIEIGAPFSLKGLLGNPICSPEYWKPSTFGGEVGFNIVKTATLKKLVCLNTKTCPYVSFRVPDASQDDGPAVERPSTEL

[11] = molecular target: T2, Thromboxane A2 receptor (Homo sapiens, UniProt P21731); format: functional, cell-based
T2 sequence (P21731 whole entry): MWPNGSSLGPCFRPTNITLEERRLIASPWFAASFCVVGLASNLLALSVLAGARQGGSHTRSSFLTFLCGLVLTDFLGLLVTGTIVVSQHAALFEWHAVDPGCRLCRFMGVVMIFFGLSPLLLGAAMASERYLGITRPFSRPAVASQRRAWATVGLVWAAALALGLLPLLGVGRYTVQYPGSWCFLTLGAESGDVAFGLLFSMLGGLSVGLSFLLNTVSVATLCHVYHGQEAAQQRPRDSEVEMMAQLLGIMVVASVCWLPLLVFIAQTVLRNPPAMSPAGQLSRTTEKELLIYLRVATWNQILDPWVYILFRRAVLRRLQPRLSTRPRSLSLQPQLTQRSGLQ

[12] = molecular target: T3, Corticotropin-releasing factor receptor 2 (Homo sapiens, UniProt Q13324)
T3 sequence (Q13324 whole entry): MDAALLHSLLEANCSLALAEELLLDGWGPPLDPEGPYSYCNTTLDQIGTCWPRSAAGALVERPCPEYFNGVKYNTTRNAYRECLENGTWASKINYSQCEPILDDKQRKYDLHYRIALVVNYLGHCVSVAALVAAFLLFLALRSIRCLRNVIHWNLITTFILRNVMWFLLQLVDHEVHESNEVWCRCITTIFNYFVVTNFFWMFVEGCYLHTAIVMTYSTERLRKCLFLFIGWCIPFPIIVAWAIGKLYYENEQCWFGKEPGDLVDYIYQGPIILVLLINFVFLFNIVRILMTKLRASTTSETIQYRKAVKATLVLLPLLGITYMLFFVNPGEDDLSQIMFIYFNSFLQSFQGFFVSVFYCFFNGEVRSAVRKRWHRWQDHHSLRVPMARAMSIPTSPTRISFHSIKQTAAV

[13] = molecular target: T4, Peroxisome proliferator-activated receptor gamma (Homo sapiens, UniProt P37231); format: functional
T4 sequence (P37231 whole entry): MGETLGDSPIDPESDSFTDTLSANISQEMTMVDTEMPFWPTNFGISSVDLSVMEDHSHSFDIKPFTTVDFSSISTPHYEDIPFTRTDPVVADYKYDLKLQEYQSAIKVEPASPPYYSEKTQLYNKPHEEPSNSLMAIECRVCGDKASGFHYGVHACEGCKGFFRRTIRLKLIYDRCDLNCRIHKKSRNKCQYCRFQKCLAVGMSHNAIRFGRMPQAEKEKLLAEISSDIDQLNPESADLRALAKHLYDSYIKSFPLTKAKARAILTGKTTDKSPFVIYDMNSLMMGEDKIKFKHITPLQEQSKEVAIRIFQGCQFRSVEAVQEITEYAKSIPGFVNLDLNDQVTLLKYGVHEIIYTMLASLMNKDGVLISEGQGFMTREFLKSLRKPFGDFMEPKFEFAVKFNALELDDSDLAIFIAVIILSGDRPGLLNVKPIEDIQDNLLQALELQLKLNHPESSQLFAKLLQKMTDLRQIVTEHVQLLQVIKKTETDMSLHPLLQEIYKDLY
Note: assay procedure not described here.

Sequence of 5-hydroxytryptamine receptor 2B (P41595 whole entry): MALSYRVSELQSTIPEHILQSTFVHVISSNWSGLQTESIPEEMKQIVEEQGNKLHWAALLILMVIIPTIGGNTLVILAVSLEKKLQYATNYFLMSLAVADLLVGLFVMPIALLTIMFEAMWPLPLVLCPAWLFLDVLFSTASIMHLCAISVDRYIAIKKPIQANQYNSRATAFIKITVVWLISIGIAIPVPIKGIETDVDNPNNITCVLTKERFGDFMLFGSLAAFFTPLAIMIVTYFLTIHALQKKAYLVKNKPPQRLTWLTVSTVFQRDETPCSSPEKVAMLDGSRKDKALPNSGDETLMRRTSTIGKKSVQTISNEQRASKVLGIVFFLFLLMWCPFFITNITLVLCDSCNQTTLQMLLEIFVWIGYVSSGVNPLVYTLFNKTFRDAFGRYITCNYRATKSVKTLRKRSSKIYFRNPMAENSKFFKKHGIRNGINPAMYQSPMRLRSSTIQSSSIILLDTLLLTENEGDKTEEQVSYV
Sequence of D(1A) dopamine receptor (P21728 whole entry): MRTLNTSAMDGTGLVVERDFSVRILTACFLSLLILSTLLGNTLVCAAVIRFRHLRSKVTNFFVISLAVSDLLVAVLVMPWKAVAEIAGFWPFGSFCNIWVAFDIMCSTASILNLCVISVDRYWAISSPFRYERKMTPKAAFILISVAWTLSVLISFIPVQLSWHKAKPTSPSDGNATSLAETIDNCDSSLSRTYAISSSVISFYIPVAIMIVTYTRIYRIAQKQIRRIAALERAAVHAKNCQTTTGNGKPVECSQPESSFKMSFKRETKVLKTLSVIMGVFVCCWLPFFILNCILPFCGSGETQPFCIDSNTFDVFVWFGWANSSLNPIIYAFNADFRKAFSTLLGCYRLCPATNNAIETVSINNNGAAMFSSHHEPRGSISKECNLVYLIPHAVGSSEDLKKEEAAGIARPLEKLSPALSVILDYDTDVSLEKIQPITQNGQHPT
Sequence of Histamine H1 receptor (P35367 whole entry): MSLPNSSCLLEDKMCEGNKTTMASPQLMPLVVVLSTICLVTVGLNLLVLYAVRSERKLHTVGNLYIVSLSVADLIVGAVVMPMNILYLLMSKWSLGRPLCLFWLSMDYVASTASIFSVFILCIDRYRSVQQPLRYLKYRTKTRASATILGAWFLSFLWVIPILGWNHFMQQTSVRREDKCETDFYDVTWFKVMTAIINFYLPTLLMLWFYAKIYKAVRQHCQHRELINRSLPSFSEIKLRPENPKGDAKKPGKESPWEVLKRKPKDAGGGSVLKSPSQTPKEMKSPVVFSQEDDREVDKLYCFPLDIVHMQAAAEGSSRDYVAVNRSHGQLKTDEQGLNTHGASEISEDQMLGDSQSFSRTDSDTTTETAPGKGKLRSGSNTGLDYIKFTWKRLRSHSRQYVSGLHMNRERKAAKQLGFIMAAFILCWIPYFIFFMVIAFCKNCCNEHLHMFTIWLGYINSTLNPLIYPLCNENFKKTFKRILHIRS
Sequence of Histamine H2 receptor (P25021 whole entry): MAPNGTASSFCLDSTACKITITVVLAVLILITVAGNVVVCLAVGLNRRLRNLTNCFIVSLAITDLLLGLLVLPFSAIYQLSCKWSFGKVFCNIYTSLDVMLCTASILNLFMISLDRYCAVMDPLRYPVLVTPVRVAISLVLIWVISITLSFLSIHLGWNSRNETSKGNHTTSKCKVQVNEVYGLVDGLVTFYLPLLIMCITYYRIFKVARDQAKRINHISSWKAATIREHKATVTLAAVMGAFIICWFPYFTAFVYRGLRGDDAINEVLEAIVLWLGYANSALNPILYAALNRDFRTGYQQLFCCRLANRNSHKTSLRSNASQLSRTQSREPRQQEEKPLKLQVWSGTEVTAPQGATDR
Sequence of D(3) dopamine receptor (P35462 whole entry): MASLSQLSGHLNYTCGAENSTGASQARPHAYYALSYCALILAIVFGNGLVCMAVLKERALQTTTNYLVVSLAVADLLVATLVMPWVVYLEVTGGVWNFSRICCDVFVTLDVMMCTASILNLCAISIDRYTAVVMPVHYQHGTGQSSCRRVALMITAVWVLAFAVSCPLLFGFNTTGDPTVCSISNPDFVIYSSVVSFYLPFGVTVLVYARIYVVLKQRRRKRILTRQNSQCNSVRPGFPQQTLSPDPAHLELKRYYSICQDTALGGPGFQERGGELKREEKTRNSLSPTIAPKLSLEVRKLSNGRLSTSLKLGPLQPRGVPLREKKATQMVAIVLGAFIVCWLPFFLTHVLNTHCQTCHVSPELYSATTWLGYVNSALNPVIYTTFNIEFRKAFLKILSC

OCc1cc(C(O)CNCCCCCCOCCCCc2ccccc2)ccc1O (stereo unspecified) [SALMETEROL]
AC50 [1]: > 30 µM

Cn1cnc2c(F)c(Nc3ccc(Br)cc3Cl)c(C(=O)NOCCO)cc21 [SELUMETINIB]
AC50 [2]: > 10 µM
AC50 [3]: > 10 µM

Nc1c2ccccc2nc2ccccc12 [AMINACRINE]
AC50 [4]: 11.7 µM
AC50 [5]: > 30 µM
AC50 [6]: > 30 µM
AC50 [7]: > 30 µM
AC50 [8]: > 30 µM
AC50 [9]: > 30 µM
AC50 [10]: > 30 µM
AC50 [11]: > 30 µM

CC(=O)OCC(=O)[C@@]1(O)[C@H](C)C[C@H]2[C@@H]3CCC4=CC(=O)C=C[C@]4(C)[C@@]3(F)[C@@H](O)C[C@@]21C [DEXAMETHASONE ACETATE]
AC50 [12]: > 30 µM

Cn1c(=O)cc(N2CCC[C@@H](N)C2)n(Cc2ccccc2C#N)c1=O [ALOGLIPTIN]
AC50 [12]: > 30 µM
AC50 [2]: > 10 µM
AC50 [3]: > 10 µM

Oc1ccc2c(c1)[C@@]13CCCC[C@@]1(O)[C@@H](C2)N(CC1CCC1)CC3 [BUTORPHANOL]
AC50 [13]: > 30 µM

CCN1CCCC1CNC(=O)c1cc(S(=O)(=O)CC)c(N)cc1OC (stereo unspecified) [AMISULPRIDE]
AC50 [1]: > 30 µM
AC50 [13]: > 30 µM

O=C(O)CCCCC1CCSS1 (stereo not drawn) [LIPOIC ACID, ALPHA]
AC50 [4]: > 30 µM
AC50 [5]: > 30 µM
AC50 [6]: > 30 µM
AC50 [7]: > 30 µM
AC50 [8]: > 30 µM
AC50 [9]: > 30 µM
AC50 [10]: > 30 µM
AC50 [11]: > 30 µM
